The source made the active and inactive calls. No cut-off for these calls is given here.
Columns and labels:
Plasmodium berghei [1] = experiment: Antimalarial activity against Plasmodium berghei infected in mouse assessed as change in mean survival time at 640 mg/kg, sc; format: functional; conditions: route subcutaneous
Mus musculus [2] = experiment: Phototoxicity in ip dosed mouse; format: organism-based; conditions: in vivo
Mus musculus [3] = experiment: Toxicity in mouse infected with Plasmodium berghei assessed as animal death at 640 mg/kg, sc; format: organism-based; design: dose 640 mg/kg, route subcutaneous; conditions: in vivo
Plasmodium berghei [4] = experiment: Antimalarial activity against Plasmodium berghei infected in mouse assessed as change in mean survival time at 320 mg/kg, sc; format: functional; conditions: route subcutaneous
Plasmodium berghei [5] = experiment: Antimalarial activity against Plasmodium berghei infected in mouse assessed as change in mean survival time at 160 mg/kg, sc; format: functional; conditions: route subcutaneous
Plasmodium berghei [6] = experiment: Antimalarial activity against Plasmodium berghei infected in mouse assessed as disease cure by measuring host survival for 60 days at 640 mg/kg, sc; format: functional, organism-based; design: dose 640 mg/kg
Plasmodium berghei [7] = experiment: Antimalarial activity against Plasmodium berghei infected in mouse assessed as disease cure by measuring host survival for 60 days at 320 mg/kg, sc; format: functional, organism-based; design: dose 320 mg/kg
Plasmodium berghei [8] = experiment: Antimalarial activity against Plasmodium berghei infected in mouse assessed as disease cure by measuring host survival for 60 days at 160 mg/kg, sc; format: functional, organism-based; design: dose 160 mg/kg
Mus musculus [9] = experiment: Toxicity in mouse infected with Plasmodium berghei assessed as animal death at 320 mg/kg, sc; format: organism-based; design: dose 320 mg/kg, route subcutaneous; conditions: in vivo

Row | Compound | MST (Plasmodium berghei [1]) | MED (Mus musculus [2]) | Activity (Mus musculus [3]) | MST (Plasmodium berghei [4]) | MST (Plasmodium berghei [5]) | Activity (Plasmodium berghei [6]) | Activity (Plasmodium berghei [7]) | Activity (Plasmodium berghei [8]) | Activity (Mus musculus [9])
1 | CCCCN(CCCC)CC(O)c1c(C)cnc2c1ccc1cccc(Cl)c12.Cl (stereo not given) | 8.2 days | 200 mg/kg | Non-toxic | 6.2 days | 1.2 days |  |  |  | 
2 | CCCCN(CCCC)CC(O)c1cc(-c2ccc(C)cc2C)nc2c1cc(Cl)c1ccccc12.Cl (stereo not given) |  |  | Non-toxic |  | 9 days | Active | Active |  | 
3 | CCCCN(CCCC)CC(O)c1c(C)cnc2c1ccc1ccccc12.Cl (stereo not given) | 5.3 days | Not Active | Non-toxic | 2.9 days | 0.9 days |  |  |  | 
4 | CCCCN(CCCC)CC(O)c1cc(C(C)(C)C)nc2c1cc(Cl)c1ccccc12.O=C(O)C(=O)O (stereo not given) |  | 100 mg/kg | Non-toxic |  | 2.2 days | Active | Active |  | 
5 | CCCCN(CCCC)CC(O)c1cc(-c2cc(OC)c(OC)c(OC)c2)nc2c1cc(Cl)c1ccccc12.Cl (stereo not given) |  | 80 mg/kg |  |  |  |  | Active | Active | Non-toxic
6 | C=C[C@H]1CN2CC[C@H]1C[C@H]2[C@H](O)c1cc(-c2ccccc2)nc2ccc(OC)cc12 |  | 10 mg/kg | Non-toxic |  | 5.8 days | Active |  |  | 
7 | CCCCN(CCCC)CC(O)c1c(C)cnc2c1cc(Cl)c1ccccc12.Cl (stereo not given) |  | 400 mg/kg | Non-toxic | 12.9 days | 6.9 days | Active |  |  | 
8 | CCCCN(CCCC)CC(O)c1cc(-c2ccc(C)cc2C)nc2c1ccc1ccccc12.Cl (stereo not given) | 5.6 days | 300 mg/kg | Non-toxic | 4.6 days | 4.2 days |  |  |  | 
9 | CCCCN(CCCC)CC(O)c1cc(C(C)(C)C)nc2c1ccc1ccccc12.O=C(O)C(=O)O (stereo not given) | 10.2 days | 100 mg/kg | Toxic | 1.2 days |  |  |  |  | 
10 | C=C[C@H]1CN2CC[C@H]1C[C@H]2[C@H](O)c1ccnc2ccc(OC)cc12 [QUININE] | 4.8 days | Not Active | Non-toxic |  | 0.6 days |  |  |  | 
11 | CCCCN(CCCC)CC(O)c1cc(C(C)(C)C)nc2c1cc(C)c1ccccc12.O=C(O)C(=O)O (stereo not given) | 5.9 days | 300 mg/kg | Non-toxic | 3.5 days | 2.7 days |  |  |  | 

From ChEMBL document CHEMBL3272020, “Synthesis, antimalarial activity, and phototoxicity of some benzo(h)quinoline-4-methanols” (J Med Chem, 1976)
